Reference: the NIST ThermoML archive (doi:10.1021/je050165t)

Tests used:
[1] = xn = mol fraction of the nth substance listed; details: 101 kPa, Liquid
[2] = 101 kPa, Liquid

CCCCn1cc[n+](C)c1.F[P-](F)(F)(F)(F)F [1-butyl-3-methylimidazolium hexafluorophosphate] + CC#N
[1]
Details	mass density, 298.15 K [kg/m3]	mass density, 303.15 K [kg/m3]	mass density, 308.15 K [kg/m3]	mass density, 313.15 K [kg/m3]	mass density, 318.15 K [kg/m3]	speed of sound, 298.15 K [m/s]	speed of sound, 303.15 K [m/s]	speed of sound, 308.15 K [m/s]	speed of sound, 313.15 K [m/s]	speed of sound, 318.15 K [m/s]
x1 = 0.0453	878.471	873.235	866.821	862.713	857.428	1293.5	1275.1	1256.7	1238.4	1220.2
x1 = 0.0935	959.103	954.02	948.924	943.817	938.706	1308.9	1291.8	1274.6	1257.5	1240.5
x1 = 0.2007	1085.08	1080.25	1075.41	1070.58	1065.76	1341.9	1326.2	1310.9	1295.8	1280.9
x1 = 0.2966	1159.89	1155.23	1150.56	1145.9	1141.24	1366.5	1352.2	1338.1	1324	1310
x1 = 0.4241	1228.44	1223.91	1219.4	1214.89	1210.4	1389	1375.6	1362.3	1349.2	1336.3
x1 = 0.514	1263.52	1258.71	1254.64	1250.22	1245.81	1402	1389.2	1376.5	1363.8	1351.2
x1 = 0.6186	1294.95	1290.95	1286.59	1282.25	1277.92	1413.5	1401	1388.7	1376.5	1364.4
x1 = 0.7285	1320.82	1316.59	1312.32	1308.06	1303.82	1423.9	1411.8	1399.9	1388	1376.2
x1 = 0.7886	1332.55	1328.3	1324.05	1319.81	1315.59	1427.9	1415.9	1404.1	1392.4	1380.8
x1 = 0.8925	1350.78	1346.33	1342.2	1338.05	1333.89	1436.5	1424.5	1412.6	1401	1389.5
x1 = 1	1366.66	1362.4	1358.3	1354.19	1350.08	1442.4	1430.6	1419	1407.5	1396.3

CC#N [acetonitrile]
[2]
Details	mass density [kg/m3]	speed of sound [m/s]
298.15 K	776.533	1278.6
303.15 K	771.116	1258.7
308.15 K	765.66	1238.7
313.15 K	760.162	1218.5
318.15 K	754.462	1198.3
